Consider eight compounds from ChEMBL document CHEMBL1201862, “PubChem BioAssay data set” (2004).

The term GI50 denotes the concentration at which growth is held to half of that of the control.

Test systems include 786-0; BT-549; CAKI-1; HL-60; HT-29; K562; KM12; LOX IMVI; M14; MDA-MB-231; MDA-MB-435; MOLT-4; Malme-3M; NCI/ADR-RES; OVCAR-3; SF-268; SF-295; SK-MEL-2; SK-MEL-5; SR.
Assay in all cases: DTP human tumour cell line panel, 48 h

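Each compound was tested at five concentrations against cells in 96-well plates for 48 hours. GI50 = concentration required for 50% inhibition of growth.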 Activity calls are given as the source filed them. No stated cut-off is given here; in the data, active = GI50 up to about 1.1 µM and inactive = higher. Bounds are passed on as bounds.

In the case of `Cc1ccc(S(=O)(=O)NC(=O)NC(Cc2ccc(O)c(O)c2)C(=O)O)cc1` (stereo not drawn), the GI50 in the assay with 786-0 is 20.4 µM (inactive); in the assay with BT-549, > 100 µM (inactive); in the assay with CAKI-1 it was > 100 µM (inactive); in the assay on HL-60, > 100 µM (inactive); in the assay with HT-29 it was > 100 µM (inactive); with K562, 37.1 µM (inactive). In addition, the GI50 with KM12, with LOX IMVI, in the assay on M14, with MDA-MB-231, with MDA-MB-435 and with MOLT-4 was > 100 µM (inactive) in each case. For the same compound, the GI50 in the assay on Malme-3M is > 100 µM (inactive); with NCI/ADR-RES, > 100 µM (inactive); with OVCAR-3, > 100 µM (inactive); in the assay on SF-268, 0.745 µM (active); with SF-295, > 100 µM (inactive); with SK-MEL-2, > 100 µM (inactive). Also, the GI50 in the assay on SK-MEL-5 is > 100 µM (inactive).

As to `N#CC(C#N)=c1c(=O)c2c3ccccc3cc3cccc1c32`, the GI50 in the assay on 786-0 is 35.2 µM (inactive); in the assay with BT-549, > 100 µM (inactive); with CAKI-1, > 100 µM (inactive); in the assay with HL-60, 68.1 µM (inactive); with HT-29, > 100 µM (inactive); in the assay on KM12, 58.7 µM (inactive). Besides, the GI50 was > 100 µM (inactive) with LOX IMVI; > 100 µM (inactive) in the assay with M14; > 100 µM (inactive) in the assay with MDA-MB-231; > 100 µM (inactive) in the assay on MDA-MB-435; 70.3 µM (inactive) with MOLT-4; > 100 µM (inactive) in the assay on NCI/ADR-RES. Besides, the GI50 is > 100 µM (inactive) in the assay with OVCAR-3, > 100 µM (inactive) in the assay with SF-268, 92.3 µM (inactive) in the assay on SK-MEL-2 and > 100 µM (inactive) in the assay on SK-MEL-5.

With `C=Cc1c(C)c2cc3nc(c4c5[nH]c(cc6nc(cc1[nH]2)C(C)=C6CC)c(C)c5C(=O)C4C(=O)OC)C(CCC(=O)OC)C3C` (stereo not drawn), the GI50 with 786-0, in the assay on BT-549, in the assay on CAKI-1, in the assay on HL-60, in the assay with HT-29 and in the assay with K562 was > 100 µM (inactive) in each case. Besides, the GI50 with KM12, in the assay on LOX IMVI, in the assay with M14, in the assay with MDA-MB-231, in the assay on MDA-MB-435 and in the assay with Malme-3M was > 100 µM (inactive) each time. In addition, the GI50 in the assay on OVCAR-3, in the assay with SF-268, in the assay on SF-295, in the assay on SK-MEL-2, in the assay on SK-MEL-5 and in the assay on SR was > 100 µM (inactive) in each case.

Regarding `CN1CCN(C(=S)N(C(=O)c2ccco2)c2ccccc2)CC1`, the GI50 in the assay with 786-0, in the assay on BT-549, with HL-60, in the assay with HT-29, in the assay with K562 and in the assay with KM12 was > 100 µM (inactive) throughout. Further, the GI50 in the assay on LOX IMVI, in the assay on M14, in the assay on MDA-MB-231, in the assay on MDA-MB-435, in the assay on MOLT-4 and in the assay on Malme-3M was > 100 µM (inactive) in each case. The GI50 in the assay on OVCAR-3, in the assay with SF-268, in the assay with SF-295, with SK-MEL-2, in the assay on SK-MEL-5 and in the assay on SR was > 100 µM (inactive) each time.

Consider `CCOC(=O)c1cn2c(n1)sc1cc(OC)ccc12`, for which the GI50 in the assay with 786-0 was 6.21 µM (inactive); in the assay with BT-549 it was > 69.7 µM (inactive); in the assay on CAKI-1 it was 13.5 µM (inactive); in the assay on HT-29, 2.82 µM (inactive); in the assay on K562 it was 3.75 µM (inactive); in the assay on KM12, 3.34 µM (inactive). The GI50 in the assay with LOX IMVI is 18.2 µM (inactive); with M14 it was 5.28 µM (inactive); in the assay with MDA-MB-231, 37.3 µM (inactive); in the assay on MDA-MB-435 it was 1.18 µM (inactive); with MOLT-4, 4.61 µM (inactive); with Malme-3M, 27.6 µM (inactive). For the same compound, the GI50 with NCI/ADR-RES was 19.5 µM (inactive); in the assay on OVCAR-3, 3.85 µM (inactive); in the assay on SF-268 it was 27.4 µM (inactive); in the assay on SF-295 it was 7.18 µM (inactive); in the assay on SK-MEL-2 it was 14.9 µM (inactive); in the assay on SK-MEL-5, 2.72 µM (inactive).

With `CCCCC(=O)Nc1ccc2c(C)cc(-c3ccc(-c4cc(-c5ccc(C)cc5)cc(-c5ccc(-c6cc(C)c7ccc(NC(=O)CCCC)nc7n6)cc5)n4)cc3)nc2n1`, the GI50 in the assay with 786-0, with BT-549, in the assay on CAKI-1, in the assay on K562, in the assay on KM12 and in the assay on M14 was > 100 µM (inactive) each time. Besides, the GI50 in the assay with MDA-MB-231, in the assay on MDA-MB-435, with MOLT-4, in the assay on Malme-3M, in the assay with NCI/ADR-RES and with OVCAR-3 was > 100 µM (inactive) in each case. Besides, the GI50 in the assay on SF-268, in the assay with SF-295, with SK-MEL-2 and with SK-MEL-5 was > 100 µM (inactive) each time.

Take `CC12CCC(CC1(Cl)Cl)C2` (stereo not drawn): the GI50 in the assay on 786-0, in the assay with BT-549, in the assay on CAKI-1, with HL-60, with HT-29 and in the assay with K562 was > 100 µM (inactive) each time. For the same compound, the GI50 in the assay on KM12, with LOX IMVI, in the assay with M14, in the assay with MDA-MB-435, with MOLT-4 and in the assay on Malme-3M was > 100 µM (inactive) each time. The GI50 in the assay with NCI/ADR-RES, with OVCAR-3, in the assay with SF-268, in the assay with SF-295, in the assay with SK-MEL-2 and with SK-MEL-5 was > 100 µM (inactive) throughout. In addition, in the assay on SR, the GI50 is > 100 µM (inactive).

For `CC(C)=CCN1CC(C)C(=O)Nc2cc(Cl)ccc21` (stereo not drawn), the GI50 with 786-0 is 19.2 µM (inactive); in the assay with BT-549, 18.7 µM (inactive); with CAKI-1, 18.5 µM (inactive); with HL-60 it was 47.8 µM (inactive); in the assay on HT-29, 19.2 µM (inactive); in the assay with K562 it was 96.8 µM (inactive). For the same compound, the GI50 in the assay with KM12 was 25.2 µM (inactive); in the assay with LOX IMVI, 16.2 µM (inactive); in the assay with M14, 23.2 µM (inactive); in the assay on MDA-MB-231, 22 µM (inactive); with MDA-MB-435, 23.4 µM (inactive); with MOLT-4, > 100 µM (inactive). In addition, the GI50 with Malme-3M was 25.1 µM (inactive); in the assay with OVCAR-3 it was 15.1 µM (inactive); in the assay with SF-268 it was 35.2 µM (inactive); in the assay on SF-295 it was 27.1 µM (inactive); in the assay on SK-MEL-2, 16.2 µM (inactive); in the assay on SK-MEL-5, 13.6 µM (inactive). Moreover, the GI50 in the assay with SR is > 100 µM (inactive).
